# In article PMC9772450, “Gel-forming antagonist provides a lasting effect on CGRP-induced vasodilation” (Frontiers in Pharmacology, 2022):
# Where two headings read alike, the source gives them in different places.
# Assays:
# [1] = administered as a 25% gel depot; ref Oberg and Lamberts, 2016; cited from earlier work
# Excerpt: Our screening of long-acting antagonists has originally focused on lipidated peptides because lipidation is known to increase the half-lives of various peptides by enabling them to be bound by albumin and other serum proteins, therefore reducing elimination by kidneys and degradation by serum proteases ([Drucker et al., 2010]). […] This finding is consistent with earlier studies of benzoylated and lipidated CGRP8-37 analogs which ha ...
# [2] = cited from earlier work
# [3] = Viscosity of peptide solutions, Rheosense viscometer; type: physicochemical; conditions: N = 5 per group, result in words
# Description: (§1) To evaluate the ability of peptides to form gels in situ, we initially determined this tendency qualitatively based on visual examinations of peptide solutions using a tube-tapping method. In addition, we quantitatively determined the viscosity of select peptide solutions using a viscometer (Rheosense Inc; http://www.rheosense.com/products/viscometers) ([Yan and Pochan, 2010]). In the visual assay, aliquots of peptides were dissolved in an aqueous solution (i.e., de-ionized water, saline, or 5% glucose solution). The peptide that dissolved instantly and stayed as a clear solution without obvious macroscopic change in viscosity at 20 min after mixing was considered soluble. If macroscopic particles of peptides remained in the solution at 20 min after mixing, the peptide was considered insoluble.
# In addition, we quantitatively determined the viscosity of ADE651 and control peptides using the Rheosense viscometer. The peptide solution was loaded onto a Rheosense viscometer chip, and the sample was injected at a constant flow rate through the flow channel with multiple pressure sensors that monitor the pressure drop from the inlet to the outlet. Because the pressure drop is correlated with the shear stress at the boundary wall, the instrument determines the rheological properties based on the standard principles of rheometry ([Yan and Pochan, 2010]).
# [4] = test system: CGRP-induced vasodilation; experiment: Dermal blood flow and vasodilation in rat hindlimbs, laser Doppler imaging; type: in vivo, Sprague-Dawley rats; conditions: rat hindlimb, ADE651 8 mg in 8% solution s.c. at 0 h
# Description: Adult Sprague Dawley male rats (body weight 150–200 g) were randomly divided into treatment groups. Animals were individually housed during the experiment. After acclimation, rats were anesthetized and stabilized under 2.5% isoflurane, and were placed on a heating pad. Testing articles were prepared just before the experiment and individually administered subcutaneously into the hindlimbs. Human β-CGRP (LifeTein LLC, Hillsborough, NJ) was dissolved in a saline solution, and the antagonist solution was prepared in a 5% glucose solution. […] In this experiment, the antagonist gel solution was administered at 0 h as a liquid solution shortly after dissolution to prevent issues associated with the formation of semi-solid gel when the peptide is dissolved at high levels. […] The amount of blood flow was determined by laser Doppler imaging as described earlier ([Van der Schueren et al., 2007]; [Benschop et al., 2014]). The laser Doppler scan series of the hindlimbs began with two baseline scans and was followed by two scans each at select time points. Data are reported as percent change from the average baseline scans.
# [5] = Visual (tube-tapping) assay of gel-forming capability and solubility; type: physicochemical; set-up: key to Gel-forming ability: Y: can form a liquid gel; N: lacks the ability to efficiently form a liquid gel
# Description: as §1
# [6] = Passage of peptide molecules through Centricon filters; type: physicochemical; conditions: Centricon 30,000 MW cutoff, ADM2 EIA
# Excerpt: To evaluate whether gel-formation reduces the movement of peptide molecules in solution, we used the Centricon® filters (Millipore) to separate samples and the carriers based on their molecular mass. The sample is monomeric peptides, and the carrier is the self-assembled gel. One milligram aliquots of the peptides were first dissolved as 0.1% solution in 5% glucose, 0.1% solution in saline, 5% solution in 5% glucose, 10% solution in 5% glucose, and 20% solution in 5% glucose. Ten minutes later, the 5%, 10%, and 20% solutions were diluted to the 0.1% level. Aliquots of these solutions were sampled and dispensed into separate Centricon columns (30,000 MW cutoff), and the monomeric peptide and gel molecules were separated by centrifugation for 15 min (2000 x g). The level of peptide in the elutes was determined by specific EIAs (Phoenix Pharmaceuticals Inc.).
# [7] = Release of ADE651 from gel solution in vivo (single-dose pharmacokinetics); set-up: species or system Sprague-Dawley rats; conditions: rat
# Description: Single-dose pharmacokinetics of gel solution was investigated in male Sprague-Dawley rats. Rats received a peptide solution via the subcutaneous route. Blood samples were collected at pre-dose, 8 h, 1, 2, 4, and 8 days via a catheter that has been cannulated to the jugular vein (Charles River), and 0.5–1.0 ml of blood samples were collected at each time point. The animals were individually housed, plasma was obtained by centrifugation, and the peptide level in samples was determined by specific ADM2 EIAs (Catalogue no. EK-010–48, Phoenix Pharmaceuticals Inc.). It has a 0% cross-reactivity to ADM or CGRPs and has a sensitivity of 0.19 ng/ml. The Inter-assay variation was <15%.
# [8] = test system: capsaicin-induced dermal blood flow; conditions: ref Sinclair et al., 2010; cited from earlier work
# Excerpt: It is known that anti-CGRP gepants could occupy a binding site close to the interface of the N-terminal domains of CLR and RAMP1, and act by allosteric regulation ([Miller et al., 2010]). Although the gepants compounds have low IC50 values in receptor activation assays in vitro, it is well documented that gepants need high concentrations to bloc ...
compound,measurement,setting,value
Lanreotide,Period over which the gel releases the monomer,[1],a month
"adrenomedullin [ADM, reference compound]",Resident time after subcutaneous injection,"[2]; short half-life, ref Nagata et al., 2022",< 1 h
same,Viscosity of 0.5% and […] solutions in 5% glucose,[3],like that of 5% glucose solution
CCCCCCCCCCCCCCCC(=O)N[C@@H](CCCCN)C(=O)N[C@H](C(=O)N[C@@H](CCC(N)=O)C(=O)N[C@@H](CCCCN)C(=O)N[C@@H](CC(C)C)C(=O)N[C@@H](CO)C(=O)N[C@@H](C)C(=O)N1CCC[C@H]1C(=O)N[C@H](C(=O)N[C@@H](CC(=O)O)C(=O)N1CCC[C@H]1C(=O)N[C@@H](CO)C(=O)N[C@@H](CO)C(=O)N1CCC[C@H]1C(=O)N[C@@H](Cc1c[nH]cn1)C(=O)N[C@@H](CO)C(=O)N[C@@H](Cc1ccc(O)cc1)C(N)=O)C(C)C)C(C)C [ADE651],Viscosity of 0.5% solution in 5% glucose,"[3]; compared with water, saline, 5% glucose, 0.5% and […] ADM",significantly higher than that of all other solutions evaluated
same,CGRP-induced increase in blood flow at the 5 h time point after ADE651 pretreatment,"[4]; CGRP 1 mg/100 µL at 4 h, N = 3",6%
same,Blood flow before the CGRP treatment (4 h time point) versus control animals,[4]; result in words,significantly lower
same,Appearance of solution in saline at 6–20%,[5]; visual,cloudy
same,Solubility in 5% glucose solution,[5]; visual,soluble from 0.1% to 20%
same,Solubility in saline,[5]; visual,low solubility
same,Gel-forming ability,"[5]; visual inspection of 11% peptide solutions, tube-tapping, 20 min after mixing",Y
same,Concentration at which the peptide solution forms a gel (becomes viscous),"[5]; visual, 20 min after dissolution, vial tilted 90° and tapped",6–20%
same,"Reduction of peptide level in the elutes from 5%, 10% and 20% solution groups compared to the 0.1% solution group","[6]; 2000 x g 15 min, dissolved in 5% glucose, diluted to 0.1% after 10 min, triplicate samples",more than 98%
same,Peptide level in the elute from the 0.1% saline group versus 0.1% solution in 5% glucose group,"[6]; N = 3 per group, result in words",significantly lower
same,Tmax,"[7]; male, Sprague-Dawley, sc, subcutaneous, 200 µL of 16% solution (32 mg), plasma, ADM2 EIA, three animals, read-out: Time of peak circulating level after administration",8 h
same,Sustained presence in the circulation after subcutaneous injection,[7]; subcutaneous gel solution,> 1 week
same,Circulating level at 8 days after injection,"[7]; subcutaneous, 16% solution (32 mg), plasma, ADM2 EIA, versus 0 h, result in words",significantly elevated
"O=C(N[C@@H]1CC[C@@H](c2cccc(F)c2F)CN(CC(F)(F)F)C1=O)N1CCC(n2c(=O)[nH]c3ncccc32)CC1 [telcagepant, reference compound]",EC (90) to inhibit the capsaicin-induced increase in dermal blood flow,[8],~909 nM
adrenomedullin 2 [ADM2],Resident time after subcutaneous injection,"[2]; in vivo, sc",< 1 h
